In patent publication US20230382916A1, “HETEROARYL HETEROCYCLIC COMPOUNDS AND USES THEREOF” (HUTCHISON MEDIPHARMA LIMITED, priority 2020, published 2023):

Legend:
[1] = Stability test in liver microsomes (mouse); assay type: in vitro ADME; conditions: mouse liver microsomes 0.5 mg/mL, 1 μM compound
Protocol: (§1) Both male CD-1 mouse pooled liver microsomes and male SD rat pooled liver microsomes were purchased from BioreclamationIVT Corporation, USA.
(§2) The test compound stock solution was diluted with an organic solvent (usually a mixture of acetonitrile, methanol and water with various ratios, depending on the solubility of the compound, if necessary, 1 N hydrochloric acid or 1 N sodium hydroxide would be added to facilitate solubilization) to the 0.1 mM (the final concentration of the compound in the reaction system was 1 μM) and the concentration percentage of the organic solvents in the incubation system no more than 1% (wherein the percentage of DMSO was required to be no more than 0.1%). An appropriate amount of 100 mM NADP, 500 mM G-6-P and 100 Unit/mL G-6-PDH were mixed and diluted with ultrapure water (the final system contains 1 mM NADP, 5 mM G-6-P and 1 Unit/mL G-6-PDH), pre-incubated in a 37° C. water bath for 10 minutes and then placed on ice for use as a NADPH regeneration solution. 20 mg/mL liver microsomes solution and 200 mM phosphate buffer were mixed, and diluted with ultrapure water to give a liver microsomes solution containing 2.5 mg/mL liver microsomes (the final concentration of the reaction system is 0.5 mg/mL) and 50 mM phosphate buffer. The diluted liver microsomes solution was mixed with 0.1 mM compound solution, a mixture of 100 mM EDTA, 300 mM MgCl2 solution, 200 mM phosphate buffer (the final system was 3 mM MgCl2, 1 mM EDTA and 50 mM phosphate buffer) and water in an appropriate volume was added. Finally, the NADPH regeneration solution was added, then the reaction solution was placed in a 37° C. water bath to start the reaction (the reaction time was 30 minutes), and the reaction was stopped by adding the ice-cold acetonitrile reaction stopping solution containing the internal standard. The 0-minute sample was not incubated in a 37° C. water bath, and its difference from the 30-minute sample further lies in that the ice-cold acetonitrile reaction stopping solution containing the internal standard was added first, and then the NADPH regeneration solution was added. The sample added with the reaction stopping internal standard solution was vortexed and mixed well, and then centrifuged at 4400 rpm for 10 minutes. The supernatant was taken and diluted ten times with 50% methanol for LC-MS/MS analysis.
(§3) LC-MS/MS was used to determine the concentration of the compound in the sample. The percentage of the remaining compound after 30 minutes of incubation comparing with that in the 0-minute sample was calculated using the peak area ratio of the compound to the internal standard as an indicator, to evaluate the metabolic stability of the compound.

[2] = biological target: BTK recombinant protein (Homo sapiens (Human), UniProt Q06187); test: Determination of biochemical BTK (Z'-LYTE kinase assay); conditions: 32 μM ATP
From the text: BTK recombinant protein: Invitrogen, Cat #PV3363;
Z′-LYTE® kinase test kit-tyrosine 1 peptide: Invitrogen, Cat #PV3190;
Z′-LYTE® biochemical assay employs a fluorescence resonance energy transfer (FRET)-based, coupled-enzyme format and is based on the differential sensitivity of phosphorylated and non-phosphorylated peptides to proteolytic cleavage. Both ends of the short peptide substrate are labeled with two fluorescent groups to form a FRET paired combination. In the primary reaction (the Kinase Reaction), the kinase transfers the γ-phosphate of ATP to a single […] residue on the short peptide substrate. In the secondary reaction (the development reaction), the non-phosphorylated short peptides were recognized and cleaved by a site-specific protease (the development reagent). Phosphorylated short peptides can resist such cleavage. Cleavage of short peptides can disrupt the donor (such as coumarin) and receptor fluorophores (fluorescein) on the short peptides, while the phosphorylated short peptides can maintain FRET. The calculation method of the ratio is as follows, and the ratio of the respective emission signals generated by the donor fluorophores emitted (after excitation at 400 nm) to the receptors is calculated. Emission signal ratio=emitted light by coumarin (445 nm)/emitted light by fluorescein (520 nm). If the FRET short peptide is phosphorylated (such as no kinase inhibitor), the emitted light ratio will remain in a lower level. If the FRET short peptide is non-phosphorylated (such as kinase inhibitor), the emitted light ratio will be in a higher level. In this way, the inhibitory effects of different compound inhibitors on BTK kinase activity would be distinguished.
The experiment was carried out according to the instructions of the Z′-LYTE® kinase test kit-tyrosine 1 peptide. Reagent preparation: 1.33× kinase buffer: 5× kinase buffer was diluted with water to 1.33× kinase buffer; an enzyme solution: the kinase was dissolved in 1.33× kinase buffer with the final working concentration being 3.32 nM; a short peptide solution: a short peptide stock solution (1 mM dissolved in DMSO) was dissolved in 1.33× kinase buffer with the final working concentration being 2 μM; Z′-LYTE Tyr01 phosphorylated short peptide solution, 0.6 μl of stock solution (1 mM dissolved in DMSO) was dissolved in 149.4 μl of 1.33× kinase buffer; an ATP solution: an ATP stock solution (10 mM aqueous solution) was dissolved in 1.33× kinase buffer with the final working concentration being 32 μM; a color-developing solution: color-developing solution B was dissolved in color-developing buffer with the final working concentration being 1× color-developing solution; 4× compound preparation: the compound was diluted in 3-fold gradient concentration to finally obtain 4% DMSO aqueous solution containing different concentrations of the compound, with the final working concentration being 3000, 1000, 333.33, 111.11, 37.04, 12.35, 4.12, 1.37 nM, 8 concentration points in total.
Specific steps of the experiment: In the experiment, there were three control groups, each with 8 replicate wells, which were C1 100% inhibition group (no ATP), C2 0% inhibition group (with ATP), and C3 100% phosphorylation group, respectively. 2.5 μl of serially diluted compound was added to each well of a 384-well plate, with double replicate wells, and 4% DMSO solution was added to wells C1, C2, and C3. After that, except for wells C3, 2.5 μl of BTK enzyme solution was added to each remaining well, which was left to stand at 4° C. for 30 minutes. After that, except for wells C3, 2.5 μl of short peptide solution was added to each well, and 5 μl of phosphorylated short peptide solution was added to each of wells C3. 2.5 μl of 1.33× kinase buffer was added to each of wells C1 and C3, and 2.5 μl of ATP solution was added to each of the remaining wells. The wells were centrifuged transiently, and the plate was shaken at 1000 rpm for 30 seconds to perform transient centrifuge. […]

[3] = system: anti-IgD antibody-induced B cell activation in mice whole blood; test: In vivo efficacy of the inhibitory effect on BTK target: anti-IgD antibody-induced B cell activation in mice whole blood after oral dosing; design: species or system mouse; conditions: 20 mg/kg oral single dose, 16 h
Protocol: Objects: B cells in mice whole blood were induced and activated by the anti-IgD antibody, and the inhibitory effect of the compound of the present invention on B cell activation in vivo was studied, so as to determine the inhibitory effect of the compound of the present invention on the BTK target in vivo.
Methods: C57BL/6 mice (female, 18-20 g, purchased from Shanghai Lingchang Biotechnology Co., Ltd.) were grouped according to Table 1.
The animals of each group were administered, then were placed in CO2 for anesthesia at designated time points, blood samples were taken from […] via retro-orbital bleeding, and heparin was used for anticoagulation; 90 μL of whole blood was taken from mice of each group, and added to a 96 well culture plate, and anti-mouse IgD antibody (BIO-RAD, Cat #MCA4693) was added to each well to a final concentration of […] (respectively for each drug-treated group and anti-IgD antibody-inducted vehicle group); in addition, 90 μL of whole blood of mice in the vehicle group was taken and added to the 96-well culture plate, and PBS (phosphate buffer, GIBCO, Cat #C20012500BT) was added to each well to a final concentration of 0.01 μg/L (namely, the vehicle control group); Each group was mixed well and incubated in a 37° C./5% CO2 incubator for 4 hours. In addition, the blood of mice in the drug-treated group was centrifuged to separate plasma for blood concentration analysis.
B cell activation ratio=percentage of CD69^+CD19^+ double positive B cells/percentage of CD19^+ single positive B cells
Inhibition ratio=(percentage of B cell activation ratio in anti-IgD antibody-induced vehicle group−percentage of B cell activation ratio in drug-treated group)/(percentage of B cell activation ratio in anti-IgD antibody−induced vehicle group-percentage of B cell activation ratio in vehicle control group)×100%
All data are represented by mean±standard error. For the comparison between each drug-treated group and the anti-IgD antibody-induced vehicle group, p value was calculated by Graphpad Prism using one-way ANOVA analysis of variance and Dunnett's test, and for the comparison between each drug-treated group, p value was calculated by using unpaired t test.

[4] = Stability test in liver microsomes (rat); assay type: in vitro ADME; conditions: rat liver microsomes 0.5 mg/mL, 1 μM compound
Protocol: as §1, §2, §3

BTK recombinant protein, sequence (Q06187 whole entry): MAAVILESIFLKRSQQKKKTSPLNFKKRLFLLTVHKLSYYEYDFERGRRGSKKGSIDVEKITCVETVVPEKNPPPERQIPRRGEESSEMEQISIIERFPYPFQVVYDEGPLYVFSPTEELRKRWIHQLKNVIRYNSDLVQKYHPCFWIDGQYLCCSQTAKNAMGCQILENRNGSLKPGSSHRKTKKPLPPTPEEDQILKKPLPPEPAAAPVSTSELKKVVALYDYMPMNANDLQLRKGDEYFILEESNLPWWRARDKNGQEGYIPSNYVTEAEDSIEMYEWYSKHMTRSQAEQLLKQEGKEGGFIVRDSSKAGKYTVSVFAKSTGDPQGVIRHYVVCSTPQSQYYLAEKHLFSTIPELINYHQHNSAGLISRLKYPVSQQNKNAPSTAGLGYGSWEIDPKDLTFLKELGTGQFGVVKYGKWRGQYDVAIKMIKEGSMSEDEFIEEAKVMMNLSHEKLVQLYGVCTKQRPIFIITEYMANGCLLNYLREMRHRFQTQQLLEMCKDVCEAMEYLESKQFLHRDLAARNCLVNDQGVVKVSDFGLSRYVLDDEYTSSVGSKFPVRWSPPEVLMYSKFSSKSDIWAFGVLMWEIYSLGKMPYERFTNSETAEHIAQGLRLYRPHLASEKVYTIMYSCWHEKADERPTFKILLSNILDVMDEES

Question: What does the source list for `C[C@@H]1CN(C2COC2)C[C@H](C)N1c1ccc(Nc2cc(-c3ccnc(-n4ccn5c6c(cc5c4=O)CC(C)(C)C6)c3CO)cn(C)c2=O)nc1` [Compound 2]?
Answer: MLM, percentage of the remaining compound after 30 minutes of incubation [1]: 92.6%; IC50 [2]: 7 nM; Inhibition ratio (%) on B cell activation [3]: 43%; B cell activation ratio (the population of activated B cells in total B cells) ([3]; mean ± standard error): 20.6 ± 5.0; Inhibition ratio (%) on B cell activation ([3]; listed as compound 2): 43%; RLM, percentage of the remaining compound after 30 minutes of incubation [4]: 85.7%
